Broadly, the Kd is the constant that tells how readily two partners part at equilibrium. Higher therefore signals weaker binding.

Drawing on BindingDB's records for doi:10.1002/cbic.200900537 (University of Cambridge, 2009), this text covers Kd for one compound.

The assay addresses T1, Pantothenate synthetase (Mycobacterium tuberculosis (strain ATCC 25618 / H37Rv), UniProt P9WIL5).
T1 sequence (P9WIL5 whole entry): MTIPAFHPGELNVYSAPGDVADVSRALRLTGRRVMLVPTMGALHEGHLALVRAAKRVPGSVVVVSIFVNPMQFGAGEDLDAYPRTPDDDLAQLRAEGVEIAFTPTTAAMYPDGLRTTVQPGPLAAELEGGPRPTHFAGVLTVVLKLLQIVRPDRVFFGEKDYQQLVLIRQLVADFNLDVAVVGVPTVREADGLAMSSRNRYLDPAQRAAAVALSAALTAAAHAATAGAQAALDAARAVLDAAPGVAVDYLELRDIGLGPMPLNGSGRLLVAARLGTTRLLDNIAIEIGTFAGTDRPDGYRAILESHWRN
Put plainly: Binding Assay. The conditions noted are these: pH 7.6; 25 °C. As for the experimental part: The dissociation constants and enthalpies was determined by isothermal titration calorimety.

Compound `Nc1ncnc2c1ncn2[C@@H]1O[C@H](CSSCC(O)CO)[C@@H](O)[C@H]1O` (stereo partly specified) [5'-Deoxy-5'-thiodenosine scaffold, 14c] had an equilibrium dissociation constant (Kd) of 570 µM.
